Legend:
[1] = biological target: TB IleRS (M. tuberculosis isoleucyl-tRNA synthetase) (Mycobacterium tuberculosis, UniProt P9WFV3); assay: tRNA charging (aminoacylation) assay, sensitivity of TB IleRS to PMA; assay type: biochemical; conditions: concentrations of up to 250 μM
Method: The sensitivity of the TB IleRS for the drug pseudomonic acid A (PMA; a specific inhibitor of some prokaryotic IleRS enzymes) was tested.
The conditions of the charging assay were as follows: At time zero, 10 μl of crude extract or purified protein was added to a reaction mixture containing 50 mM HEPES, pH 7.5, 8 mM MgCl2, 20 μM tritiated isoleucine (New England Nuclear) with a specific activity of 2200 cpm/pmol, 10 mM KF, 4 mM ATP, and 0.1 mM total tRNA from either E. coli (Sigma) or yeast (S. cerevisiae, Boehringer-Mannheim Biochemicals). At various times, 10-20 μl of the reaction were withdrawn, spotted onto Whatman 3 MM cellolose filter diskettes, and the reaction was quenched by placing the filters in 5% ice cold TCA (trichloroacetic acid). Diskettes were washed three times with ice cold 5% TCA, once with 5% ice cold ethanol, once with ether, and air dried. The amount of [^3 H]-isoleucine incorporated into tRNA bound to the filter was determined by scintillation counting in 5 mls Betafluor (Packard 1600 TR scintillation counter).

CC[C@H](C)[C@H](N)C(=O)O = assay: cells, lysate or membranes named; conditions: pH 7.5

TB IleRS (M. tuberculosis isoleucyl-tRNA synthetase), sequence (P9WFV3 2-1032): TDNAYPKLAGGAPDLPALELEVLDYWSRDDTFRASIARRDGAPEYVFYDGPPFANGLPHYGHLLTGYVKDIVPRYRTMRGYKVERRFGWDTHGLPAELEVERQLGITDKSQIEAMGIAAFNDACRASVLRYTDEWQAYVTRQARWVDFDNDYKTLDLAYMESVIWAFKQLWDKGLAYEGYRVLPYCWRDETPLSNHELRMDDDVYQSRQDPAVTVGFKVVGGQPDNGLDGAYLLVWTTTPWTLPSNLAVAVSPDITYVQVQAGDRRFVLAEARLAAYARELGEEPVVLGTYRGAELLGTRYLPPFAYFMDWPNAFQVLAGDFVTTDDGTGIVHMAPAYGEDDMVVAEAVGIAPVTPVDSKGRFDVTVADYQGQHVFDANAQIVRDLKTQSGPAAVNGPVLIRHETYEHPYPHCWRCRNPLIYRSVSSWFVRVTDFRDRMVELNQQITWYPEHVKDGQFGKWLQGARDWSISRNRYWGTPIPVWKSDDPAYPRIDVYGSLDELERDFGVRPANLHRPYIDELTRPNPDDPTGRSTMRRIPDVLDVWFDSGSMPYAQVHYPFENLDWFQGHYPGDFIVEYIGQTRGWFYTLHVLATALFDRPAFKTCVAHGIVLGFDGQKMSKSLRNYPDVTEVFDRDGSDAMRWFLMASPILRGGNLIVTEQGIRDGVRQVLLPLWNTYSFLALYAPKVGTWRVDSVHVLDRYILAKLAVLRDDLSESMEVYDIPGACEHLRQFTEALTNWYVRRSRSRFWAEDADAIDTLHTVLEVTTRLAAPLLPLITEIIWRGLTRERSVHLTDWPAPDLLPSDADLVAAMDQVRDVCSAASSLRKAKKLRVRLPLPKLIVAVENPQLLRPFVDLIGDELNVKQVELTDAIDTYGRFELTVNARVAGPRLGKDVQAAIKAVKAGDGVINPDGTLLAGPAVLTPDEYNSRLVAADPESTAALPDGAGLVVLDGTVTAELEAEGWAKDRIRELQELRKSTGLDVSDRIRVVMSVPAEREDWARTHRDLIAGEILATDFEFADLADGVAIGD

Compound	inhibition of the charging activity of the enzyme [1]	Km (CC[C@H](C)[C@H](N)C(=O)O)
C/C(=C\C(=O)OCCCCCCCCC(=O)O)C[C@@H]1OC[C@H](C[C@@H]2O[C@H]2[C@@H](C)[C@H](C)O)[C@@H](O)[C@H]1O [PMA, pseudomonic acid A]	did not inhibit	–
purified TB GST-IleRS fusion protein with or without thrombin cleavage (Mycobacterium tuberculosis H37Rv)	–	1.1 ± 0.2 µM

Reference: patent US5756327A, “Recombinant mycobacterial isoleucyl-tRNA synthetase genes, tester strains and assays” (priority 1995, dated 1998)
